In patent US10307425B2, “Compositions and methods for treating toxoplasmosis, cryptosporidiosis and other apicomplexan protozoan related diseases” (UNIVERSITY OF WASHINGTON, priority 2015, dated 2019):

Target: TgCDPK1 (Toxoplasma gondii, UniProt Q9BJF5)
Assay: biochemical

TgCDPK1, sequence (Q9BJF5 1-507): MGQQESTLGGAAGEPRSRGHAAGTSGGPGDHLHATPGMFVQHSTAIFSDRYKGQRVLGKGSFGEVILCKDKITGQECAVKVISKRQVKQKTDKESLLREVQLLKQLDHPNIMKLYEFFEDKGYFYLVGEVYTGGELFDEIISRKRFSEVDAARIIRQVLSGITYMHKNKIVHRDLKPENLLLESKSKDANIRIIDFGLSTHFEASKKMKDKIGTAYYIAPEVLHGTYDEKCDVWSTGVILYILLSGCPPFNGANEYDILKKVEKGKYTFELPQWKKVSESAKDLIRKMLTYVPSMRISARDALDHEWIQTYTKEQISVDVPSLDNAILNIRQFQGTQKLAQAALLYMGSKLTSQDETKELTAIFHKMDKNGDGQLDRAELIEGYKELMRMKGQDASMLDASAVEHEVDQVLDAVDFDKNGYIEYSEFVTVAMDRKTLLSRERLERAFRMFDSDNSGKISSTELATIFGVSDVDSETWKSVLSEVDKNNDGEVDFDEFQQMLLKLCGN

Row | Structure (SMILES) | IC50
1 | COCCOc1ccc2cc(-c3nn(CC(C)(C)C)c4ncnc(N)c34)ccc2n1 [Example 38, 3-(2-(2-methoxyethoxy)quinolin-6-yl)-1-neopentyl-1H-pyrazolo[3,4-d]pyrimidin-4-amine] | 3.8 nM
2 | Nc1ncnc2c1c(-c1ccc3cc(OC4CC4)ccc3c1)nn2CC1(O)CCNCC1 [Example 78, 4-((4-amino-3-(6-cyclopropoxynaphthalen-2-yl)-1H-pyrazolo[3,4-d]pyrimidin-1-yl)methyl)piperidin-4-ol] | 0.7 nM
3 | COCCOc1ccc2cc(-c3nn(CC(C)C)c4ncnc(N)c34)ccc2c1 [Example 36, 1-isobutyl-3-(6-(2-methoxyethoxy)naphthalen-2-yl)-1H-pyrazolo[3,4-d]pyrimidin-4-amine] | 1.7 nM
4 | Nc1ncnc2c1c(-c1ccc3cc(OC4CC4)ccc3c1)nn2CC1(O)CCCC1 [Example 61, 1-((4-amino-3-(6-cyclopropoxynaphthalen-2-yl)-1H-pyrazolo[3,4-d]pyrimidin-1-yl)methyl)cyclopentanol] | 13 nM
5 | CCOc1ccc2cc(-c3nn(CC4(C)COC4)c4ncnc(N)c34)ccc2c1 [Example 49, 3-(6-ethoxynaphthalen-2-yl)-1-((3-methyloxetan-3-yl)methyl)-1H-pyrazolo[3,4-d]pyrimidin-4-amine] | 2.9 nM
6 | CN1CCC(O)(Cn2nc(-c3ccc4nc(OC5CC5)ccc4c3)c3c(N)ncnc32)CC1 [Example 85, 4-((4-amino-3-(2-cyclopropoxyquinolin-6-yl)-1H-pyrazolo[3,4-d]pyrimidin-1-yl)methyl)-1-methylpiperidin-4-ol] | 21 nM
7 | CCOc1ccc2cc(-c3nn(CC4(C#N)CCNCC4)c4ncnc(N)c34)ccc2n1 [Example 86, 4-((4-amino-3-(2-ethoxyquinolin-6-yl)-1H-pyrazolo[3,4-d]pyrimidin-1-yl)methyl)piperidine-4-carbonitrile] | 1.5 nM
8 | Nc1ncnc2c1c(-c1ccc3nc(OC4CC4)ccc3c1)nn2CC1(O)CNC1 [Example 101, 3-((4-amino-3-(2-cyclopropoxyquinolin-6-yl)-1H-pyrazolo[3,4-d]pyrimidin-1-yl)methyl)azetidin-3-ol] | 3 nM
9 | CC(C)(O)Cn1nc(-c2ccc3nc(OCC(F)(F)F)ccc3c2)c2c(N)ncnc21 [Example 46, 1-(4-amino-3-(2-(2,2,2-trifluoroethoxy)quinolin-6-yl)-1H-pyrazolo[3,4-d]pyrimidin-1-yl)-2-methylpropan-2-ol] | 18.3 nM
10 | CCOc1ccc2cc(-c3nn(CC4(O)CCN(C)CC4)c4ncnc(N)c34)ccc2n1 [Example 80, 4-((4-amino-3-(2-ethoxyquinolin-6-yl)-1H-pyrazolo[3,4-d]pyrimidin-1-yl)methyl)-1-methylpiperidin-4-ol] | 23.1 nM
11 | CC(C)(COCCO)Cn1nc(-c2ccc3nc(OC4CC4)ccc3c2)c2c(N)ncnc21 [Example 45, 2-(3-(4-amino-3-(2-cyclopropoxyquinolin-6-yl)-1H-pyrazolo[3,4-d]pyrimidin-1-yl)-2,2-dimethylpropoxy)ethanol] | 1200 nM
12 | Nc1ncnc2c1c(-c1ccc3cc(OC4COC4)ccc3c1)nn2CC1CCOCC1 [Example 31, 3-(6-(oxetan-3-yloxy)naphthalen-2-yl)-1-((tetrahydro-2H-pyran-4-yl)methyl)-1H-pyrazolo[3,4-d]pyrimidin-4-amine] | 35.8 nM
13 | CN1CCC(O)(Cn2nc(-c3ccc4cc(OC5CC5)ccc4c3)c3c(N)ncnc32)CC1 [Example 79, 4-((4-amino-3-(6-cyclopropoxynaphthalen-2-yl)-1H-pyrazolo[3,4-d]pyrimidin-1-yl)methyl)-1-methylpiperidin-4-ol] | 4.5 nM
14 | CN1CC(O)(Cn2nc(-c3ccc4cc(OC5CC5)ccc4c3)c3c(N)ncnc32)C1 [Example 91, 3-((4-amino-3-(6-cyclopropoxynaphthalen-2-yl)-1H-pyrazolo[3,4-d]pyrimidin-1-yl)methyl)-1-methylazetidin-3-ol] | 3.8 nM
15 | CCOc1ccc2ccc(-c3nn(CC4CCNCC4)c4ncnc(N)c34)cc2c1 [Example 48, 3-(7-ethoxynaphthalen-2-yl)-1-(piperidin-4-ylmethyl)-1H-pyrazolo[3,4-d]pyrimidin-4-amine] | 19.1 nM
16 | CCOc1ccc2cc(-c3nn(CC4(C#N)CCN(C)CC4)c4ncnc(N)c34)ccc2n1 [Example 87, 4-((4-amino-3-(2-ethoxyquinolin-6-yl)-1H-pyrazolo[3,4-d]pyrimidin-1-yl)methyl)-1-methylpiperidine-4-carbonitrile] | 103 nM
17 | Nc1ncnc2c1c(-c1ccc3cc(OC(F)F)ccc3c1)nn2CC1(O)CCNCC1 [Example 98, 4-((4-amino-3-(6-(difluoromethoxy)naphthalen-2-yl)-1H-pyrazolo[3,4-d]pyrimidin-1-yl)methyl)piperidin-4-ol] | 7.5 nM
18 | CC(C)(O)Cn1cc(-c2ccc3cc(OC4CC4)ccc3c2)c2c(N)ncnc21 [Example 58, 1-(4-amino-5-(6-cyclopropoxynaphthalen-2-yl)-7H-pyrrolo[2,3-d]pyrimidin-7-yl)-2-methylpropan-2-ol] | 9.1 nM
19 | CC(C)n1nc(-c2ccc3cc(OC4COC4)ccc3c2)c2c(N)ncnc21 [Example 116, 1-isopropyl-3-(6-(oxetan-3-yloxy)naphthalen-2-yl)-1H-pyrazolo[3,4-d]pyrimidin-4-amine] | 6.1 nM

Row | Structure (SMILES) | IC50
20 | CCOc1ccc2cc(-c3nn(C(C)C)c4ncnc(N)c34)ccc2n1 [Example 106, 3-(2-ethoxyquinolin-6-yl)-1-isopropyl-1H-pyrazolo[3,4-d]pyrimidin-4-amine] | 2 nM
21 | CN1CC(Cn2nc(-c3ccc4nc(OC5CC5)ccc4c3)c3c(N)ncnc32)C1 [Example 41, 3-(2-cyclopropoxyquinolin-6-yl)-1-((1-methylazetidin-3-yl)methyl)-1H-pyrazolo[3,4-d]pyrimidin-4-amine] | 2.8 nM
22 | Nc1ncnc2c1c(-c1ccc3nc(OC4CC4)ccc3c1)nn2CC1(O)CCC1 [Example 57, 1-((4-amino-3-(2-cyclopropoxyquinolin-6-yl)-1H-pyrazolo[3,4-d]pyrimidin-1-yl)methyl)cyclobutanol] | 6.1 nM
23 | CC(C)Cn1nc(-c2ccc3cc(OC4COC4)ccc3c2)c2c(N)ncnc21 [Example 35, 1-isobutyl-3-(6-(oxetan-3-yloxy)naphthalen-2-yl)-1H-pyrazolo[3,4-d]pyrimidin-4-amine] | 4 nM
24 | CC(C)Cn1nc(-c2ccc3cc(OCCO)ccc3c2)c2c(N)ncnc21 [Example 34, 2-(6-(4-amino-1-isobutyl-1H-pyrazolo[3,4-d]pyrimidin-3-yl)naphthalen-2-yloxy)ethanol] | 5.8 nM
25 | CN1CCC(C#N)(Cn2nc(-c3ccc4cc(OC5CC5)ccc4c3)c3c(N)ncnc32)CC1 [Example 83, 4-((4-amino-3-(6-cyclopropoxynaphthalen-2-yl)-1H-pyrazolo[3,4-d]pyrimidin-1-yl)methyl)-1-methylpiperidine-4-carbonitrile] | 3.5 nM
26 | CC(C)n1nc(-c2ccc3cc(OCC(C)(C)O)ccc3c2)c2c(N)ncnc21 [Example 117, 1-((6-(4-amino-1-isopropyl-1H-pyrazolo[3,4-d]pyrimidin-3-yl)naphthalen-2-yl)oxy)-2-methylpropan-2-ol] | 3 nM
27 | CN1CC(O)(Cn2nc(-c3ccc4nc(OC5CC5)ccc4c3)c3c(N)ncnc32)C1 [Example 103, 3-((4-amino-3-(2-cyclopropoxyquinolin-6-yl)-1H-pyrazolo[3,4-d]pyrimidin-1-yl)methyl)-1-methylazetidin-3-ol] | 4.8 nM
28 | Nc1ncnc2c1c(-c1ccc3cc(OCC4CC4)ccc3c1)nn2CC1CCOCC1 [Example 29, 3-(6-(cyclopropylmethoxy)naphthalen-2-yl)-1-((tetrahydro-2H-pyran-4-yl)methyl)-1H-pyrazolo[3,4-d]pyrimidin-4-amine] | 4.8 nM
29 | CCOc1ccc2cc(-c3nn(CC4(O)CCNCC4)c4ncnc(N)c34)ccc2n1 [Example 84, 4-((4-amino-3-(2-ethoxyquinolin-6-yl)-1H-pyrazolo[3,4-d]pyrimidin-1-yl)methyl)piperidin-4-ol] | 4 nM
30 | CC(C)(O)C(C)(C)Cn1nc(-c2ccc3nc(OC4CC4)ccc3c2)c2c(N)ncnc21 [Example 56, 4-(4-amino-3-(2-cyclopropoxyquinolin-6-yl)-1H-pyrazolo[3,4-d]pyrimidin-1-yl)-2,3,3-trimethylbutan-2-ol] | 70.8 nM
31 | CCOc1ccc2cc(-c3nn(CC4(C#N)CCNCC4)c4ncnc(N)c34)ccc2c1 [Example 74, 4-((4-amino-3-(6-ethoxynaphthalen-2-yl)-1H-pyrazolo[3,4-d]pyrimidin-1-yl)methyl)piperidine-4-carbonitrile] | 2.7 nM
32 | CCOc1ccc2cc(-c3nn(CC4(O)CCNCC4)c4ncnc(N)c34)ccc2c1 [Example 70, 4-((4-amino-3-(6-ethoxynaphthalen-2-yl)-1H-pyrazolo[3,4-d]pyrimidin-1-yl)methyl)piperidin-4-ol] | 23.3 nM
33 | CCOc1ccc2cc(-c3nn(CC4(O)CNC4)c4ncnc(N)c34)ccc2c1 [Example 96, 3-((4-amino-3-(6-ethoxynaphthalen-2-yl)-1H-pyrazolo[3,4-d]pyrimidin-1-yl)methyl)azetidin-3-ol] | 7.8 nM
34 | CCOc1ccc2cc(-c3nc(CC4CCN(C)CC4)n4ccnc(N)c34)ccc2c1 [Example 115, 1-(6-ethoxynaphthalen-2-yl)-3-((1-methylpiperidin-4-yl)methyl)imidazo[1,5-a]pyrazin-8-amine] | 18.6 nM
35 | Nc1ncnc2c1c(-c1ccc3nc(OC4CC4)ccc3c1)nn2CC1(O)CCOCC1 [Example 62, 4-((4-amino-3-(2-cyclopropoxyquinolin-6-yl)-1H-pyrazolo[3,4-d]pyrimidin-1-yl)methyl)-tetrahydro-2H-pyran-4-ol] | 19.2 nM
36 | CN1CCC(C#N)(Cn2nc(-c3ccc4nc(OC5CC5)ccc4c3)c3c(N)ncnc32)CC1 [Example 92, 4-((4-amino-3-(2-cyclopropoxyquinolin-6-yl)-1H-pyrazolo[3,4-d]pyrimidin-1-yl)methyl)-1-methylpiperidine-4-carbonitrile] | 5.5 nM
37 | Nc1ncnc2c1c(-c1ccc3nc(OC4CC4)ccc3c1)nn2CC1(O)CCNCC1 [Example 82, 4-((4-amino-3-(2-cyclopropoxyquinolin-6-yl)-1H-pyrazolo[3,4-d]pyrimidin-1-yl)methyl)piperidin-4-ol] | 0.7 nM
